Data reported in US20190010217A1, “MOBILIZING HIV-INFECTED CELLS FROM LYMPHATIC RESERVOIRS” (INDIANA UNIVERSITY RESEARCH & TECHNOLOGY CORPORATION, priority 2016, published 2019).
Entries after “also recorded” stand apart in the source; their conditions may differ.

What was measured:
[1] = test system: Nef-ER T1 cells; test: Adhesion of Nef-ER T cells to endothelial cells (HUVEC co-culture, FACS); assay type: cell-based; settings: HIV-Nef expressing T cells (Nef-ER T1) on HUVECs; 10 μM atorvastatin pre-incubation at least 12 hours; FIG. 5
Protocol: Nef was activated in Nef-ER cells by culturing them with RPMI1640+10% FBS (fetal bovine serum) and 1 μM 4-hydrotamoxifen for at least 6 hours or overnight at 37° C. For inhibitor use, the Nef-ER cells were pre-incubated for at least 12 hours with 10 μM atorvastatin. Other inhibitors may require shorter pre-incubations.
Approximately 100K HUVECS were seeded per well in a collagen-coated 6-well plate. Cells were incubated overnight in EGM2(LONZA) medium. Nef-ER cells were stained using 5 μM Calcein AM (Ref C3100MP, Fischer Scientific) in 1 mL of staining solution and incubated for 30 minutes at 37° C. The cells were centrifuged at 300 g for 5 min, and the cell pellet was resuspended in 2 mL RPMI+10% FBS. Cells were centrifuged at 300 g for 5 min and the supernatant was removed.
After staining, 1 μL of 1 mM 4-Hydrotamoxifen per ml of EGM2(LONZA) medium was added for final concentration of 1 μM. Stained T-cells were resuspended in EGM2 media at final concentration of 250,000 cells per ml. 250,000 stained T-cells were added to each well of 6-well plate of HUVECs for co-culture (with or without 10 μM atorvastatin to maintain inhibition) and incubated for 60 minutes. The plate was gently shaken one time after 30 minutes. Cells were washed very gently 3 times with PBS (phosphate buffered saline). Cells were then trypsinized and analyzed by fluorescence activated cell sorting (FACS).

[2] = test system: GPCRs-Gαi signaling; settings: pretreatment of lymphocytes with PTX; cited from earlier work
[3] = target: S1P1 (Homo sapiens, UniProt P21453); test: Beta arrestin-TANGO assay (luciferase reporter) in HTLA cells transfected with Nef
Sequence of S1P1 (P21453 whole entry): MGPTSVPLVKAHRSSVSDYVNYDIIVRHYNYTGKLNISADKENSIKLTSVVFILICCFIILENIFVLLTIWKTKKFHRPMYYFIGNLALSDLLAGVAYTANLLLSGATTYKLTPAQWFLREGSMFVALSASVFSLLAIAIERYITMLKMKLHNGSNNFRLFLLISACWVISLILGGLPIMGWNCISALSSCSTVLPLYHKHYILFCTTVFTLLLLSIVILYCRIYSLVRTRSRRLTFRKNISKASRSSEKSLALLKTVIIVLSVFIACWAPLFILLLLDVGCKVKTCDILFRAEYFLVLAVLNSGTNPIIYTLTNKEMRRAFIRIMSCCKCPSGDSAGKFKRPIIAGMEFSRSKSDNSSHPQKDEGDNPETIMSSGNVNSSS
Source text: The role of beta arrestin in GPCR regulation, including S1P1 allows for the design and use of an S1P1 Arrestin-Tango expressing cell line (TANGO construct commercially available from AddGene) to test S1P1 signaling and its inhibitors. […] Upon activation of the S1P1 by an agonist, β-arrestin is recruited to the C-terminus of the receptor. This is followed by cleavage of the GPCR fusion protein at the TEV protease site. Cleavage results in the release of the tTA transcription factor, which after transport to the nucleus, activates transcription of the luciferase reporter gene. Thus, potential SNP1 inhibitors can be screened using the S1P1 Arresting Tango assay looking for an increase of luciferase activity indicating an increase in S1P1 signalling.
The role of beta arrestin in GPCR regulation, including S1P1, allows for the design and use of an S1P1 Arrestin-Tango expressing cell line (TANGO construct commercially available from AddGene) to test S1P1 signaling and its inhibitors. […] Upon activation of the S1P1 by an agonist, β-arrestin is recruited to the C-terminus of the receptor. This is followed by cleavage of the GPCR fusion protein at the TEV protease site. Cleavage results in the release of the tTA transcription factor, which after transport to the nucleus, activates transcription of the luciferase reporter gene.
Specifically, HTLA cells were transfected with NEF wt and analyzed for luciferase activity in response to increasing concentrations of sphingosine-phosphate (S1P).

Compound: CC(C)c1c(C(=O)Nc2ccccc2)c(-c2ccccc2)c(-c2ccc(F)cc2)n1CC[C@@H](O)C[C@@H](O)CC(=O)O [statin, atorvastatin]
- T cell adhesion [1]: reduces T cell adhesion

Compound: Pertussis toxin
- retention of T cells in lymph nodes by fingolimod [2]: prevented the retention of T cells in lymph nodes

Compound: sphingosine-phosphate [S1P]
- β-arrestin recruitment (luciferase activity) in response to increasing concentrations ([3]; HTLA cells transfected with NEF wt, increasing concentrations of S1P, FIG. 7): more activation
- β-arrestin activation (luciferase activity) ([3]; HTLA cells transfected with Nef, treated with 1mM S1P and/or FTY720, FIG. 8): significantly more activation; also recorded: increase in β-arrestin activation
